Square brackets hold non-standard residues; d marks the D form. Peptide text beside a SMILES is read from it. * marks the point of attachment. Sta = CC(C)C[C@H](N)[C@@H](O)CC(=O)O; Isovaleryl = CC(C)CC(=O)*
What was measured:
[1] = system: proteases that are active at PH5.0; assay: Protease inhibitors preventing EPO degradation at pH5.0 in 10X concentrated EPO medium, assayed by RIA; assay type: biochemical
Procedure: (§1) The addition of a dye column to step 1 gives some additional purification and, more importantly, removes contaminating proteases from EPO and consequently allows higher EPO recoveries at the S-Sepharose Fast Flow step. The clarified media was loaded on a Blue Trisacryl-M column (Pharmacia) equilibrated with 10 mM NaPO4 pH6.0, 150 mM NaCl and eluted with a linear salt gradient of 0.15 to 2.5 M NaCl in 10 mM NaPO4 pH6.0 and then flow-dialyzed into 50 mM Na Acetate, pH5.0 containing 15mM NaCl. The recovery of EPO from the Blue Trisacryl column was almost complete and the recovery on the following S-Sepharose Fast Flow column was 86% compared to 60% in example 1. […] This degradation seems to be caused by proteases that are active at PH5.0. The improved yields in step 2 as illustrated in this example can be attributed to the separation of proteases from the EPO protein by the Blue Trisacryl column. (Other commercially available dyes can also be used.)
Protease inhibitors can also be added to the conditioned medium in order to improve EPO yields. Several commercially available protease inhibitors were tested to see if they could prevent EPO degradation at pH5.0. 10X concentrated (Step 1) EPO medium was diluted 1:10 in 50mM Na Acetate, pH5.0 and then incubated at 37° C. with or without protease inhibitors at a concentration of 5 micrograms/ml. […]

[2] = Degradation of EPO incubated at 37° C. under mildly acidic conditions at pH5.0; assay type: physicochemical; conditions: 10X concentrated medium or partially purified step 2 material
Procedure: as §1

[3] = system: Polycythemic mouse; assay: Polycythemic mouse assay (in vivo biological assay); conditions: for biological activity in in vivo assays: purified rEPO from CES9dog conditioned medium
Procedure: (§2) When the cells were confluent, the supernatants were assayed for EPO expression and the cells were counted and frozen. To test the reproducibility and stability of these cell lines, the 21 highest producing cell lines were thawed and rescreened for 24 hours expression levels on a per cell basis. The five highest producers (3CES and 2CEG transformants) were chosen and expanded into roller bottles to test for growth and production properties. Representative 24 hour culture fluids from cell lines CES9dog and CEG4d in T-75 flasks contained 600U/ml and 800U/ml of rEPO as measured by the ^3 H-thy uptake assay using human urinary EPO as a standard and 490 and 540U/ml when measured by the ^59 Fe incorporation assay into rat bone marrow cells in vitro (Goldwasser et al., 1975, Endocrinology 97:315.). These samples were also active in vivo in the Polycythemic mouse assay as described by Cotes et al., 1961, Nature 191:1065.

[4] = system: rat bone marrow cells; assay: In vitro biological assays (3H-thy uptake assay, 59Fe incorporation into rat bone marrow cells); assay type: cell-based; conditions: purified rEPO from CES9dog conditioned medium
Procedure: Foci, representing BPV transformed C127 cells, were detectable 10-14 days after transfection. Supernatants from Plates containing transformants were assayed 17 days after transfection by the ^3 H-thy uptake assay (Krystal 1983, Exp. Hematol., 11/7, 649) and found to contain EPO. 21/2 to 3 weeks after transfection, foci were isolated by the cloning ring method and transferred to T-25 flasks. After the cells reached approximately 20% confluency, the supernatants were tested for EPO production by the ^3 H-thy uptake assay. A total of 76 cell lines (15 CEM, 35 CES and 26 CEG transformants) were transferred into T-75 flasks.
as §2, with “The five highest producers (3CES and 2CEG transformants) were chosen and expanded into roller bottles to test for growth and production properties.” left out, “These samples were also active in vivo in the Polycythemic mouse assay as described by Cotes et al., 1961, Nature 191:1065.” left out

Compound	effect on EPO immunoactivity at pH5.0 ([1]; 5 micrograms/ml, 50mM Na Acetate pH5.0, 37° C., over 29 hours, RIA)	IC50 (the concentration at which 50% of the proteases are inhibited) ([1]; 10X concentrated medium, pH5.0, 37° C., 25 hours, RIA (FIG. 9))	t1/2 of degradation [2]	activity in vivo in the Polycythemic mouse assay ([3]; 24 hour culture fluids from cell lines CES9dog and CEG4d)	biological activity in in vivo assays [3]	biological activity in in vivo assays ([3]; listed as EPO)	biological activity in in vitro assays [4]	biological activity in in vitro assays ([4]; listed as EPO)
CC(C)CC(=O)N[C@H](C(=O)N[C@H](C(=O)N[C@@H](CC(C)C)[C@@H](O)CC(=O)N[C@@H](C)C(=O)N[C@@H](CC(C)C)[C@@H](O)CC(=O)O)C(C)C)C(C)C [Pepstatin, pepstatin] (Isovaleryl-VV[Sta]A[Sta]-OH)	significant stabilizing effect	approximately 0.02 ug/ml						
rEPO: recombinant human erythropoietin produced by BPV transformed mouse C127 cells, N- and O-glycosylated			approx. 4 h	active	high biological activity	high potency	high biological activity	high potency
